Source: ChEMBL document CHEMBL4020825, “Optimization of Potent and Selective Tricyclic Indole Diazepinone Myeloid Cell Leukemia-1 Inhibitors Using Structure-Based Design” (J Med Chem, 2018)
Where “and” joins values, the source holds several entries; their conditions need not be identical. Equal entries are not always repeated.

Experiments:
[1] = target: Induced myeloid leukemia cell differentiation protein Mcl-1 (Homo sapiens, UniProt Q07820)
Description: Inhibition of FITC-Bak-BH3/FITC-Bim-BH3 binding to MCL1 (172 to 327 residues) (unknown origin) expressed in Escherichia coli BL21 CodonPlus (DE3) RIL after 1.5 hrs by fluorescence polarization assay

[2] = in vitro; details: human, K562 cells
[3] = test system: NCI-H929; test: cells; details: Homo sapiens, NCI-H929, 72 h
[4] = target: Bcl-2-like protein 1 (Homo sapiens, UniProt Q07817)
Chain of Bcl-2-like protein 1 (Q07817 whole entry): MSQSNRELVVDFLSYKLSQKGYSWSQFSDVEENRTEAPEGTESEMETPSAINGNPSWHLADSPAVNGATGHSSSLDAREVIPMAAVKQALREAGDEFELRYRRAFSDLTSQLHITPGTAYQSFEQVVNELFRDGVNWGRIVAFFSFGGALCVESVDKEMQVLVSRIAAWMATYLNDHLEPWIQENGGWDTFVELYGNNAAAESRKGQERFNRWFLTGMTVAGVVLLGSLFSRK
Description: Inhibition of FITC-Bak-BH3 binding to Bcl-XL (unknown origin) after 1.5 hrs by fluorescence polarization assay

[5] = target: Apoptosis regulator Bcl-2 (Homo sapiens, UniProt P10415)
Chain of Apoptosis regulator Bcl-2 (P10415 whole entry): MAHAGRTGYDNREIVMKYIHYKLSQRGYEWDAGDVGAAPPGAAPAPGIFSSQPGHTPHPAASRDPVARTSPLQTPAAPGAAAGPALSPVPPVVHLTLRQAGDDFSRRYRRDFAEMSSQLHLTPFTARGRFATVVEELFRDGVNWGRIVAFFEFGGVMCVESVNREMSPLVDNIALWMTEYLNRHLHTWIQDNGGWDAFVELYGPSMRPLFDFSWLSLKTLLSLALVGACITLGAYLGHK
Description: Inhibition of FITC-Bak-BH3 binding to Bcl2 (unknown origin) after 1.5 hrs by fluorescence polarization assay

[6] = physchem; details: PAMPA
Description: Passive permeability of the compound by PAMPA

[7] = test system: OPM-2; test: cells; details: Homo sapiens, OPM-2, 72 h
[8] = test system: MV4-11; test: cells; details: Homo sapiens, MV4-11, 72 h
[9] = cells; details: Homo sapiens, ALMC1, 72 h
[10] = cells; details: Homo sapiens, ALMC2, 72 h
[11] = test system: NCI-H929

Chain of Induced myeloid leukemia cell differentiation protein Mcl-1 (Q07820 whole entry): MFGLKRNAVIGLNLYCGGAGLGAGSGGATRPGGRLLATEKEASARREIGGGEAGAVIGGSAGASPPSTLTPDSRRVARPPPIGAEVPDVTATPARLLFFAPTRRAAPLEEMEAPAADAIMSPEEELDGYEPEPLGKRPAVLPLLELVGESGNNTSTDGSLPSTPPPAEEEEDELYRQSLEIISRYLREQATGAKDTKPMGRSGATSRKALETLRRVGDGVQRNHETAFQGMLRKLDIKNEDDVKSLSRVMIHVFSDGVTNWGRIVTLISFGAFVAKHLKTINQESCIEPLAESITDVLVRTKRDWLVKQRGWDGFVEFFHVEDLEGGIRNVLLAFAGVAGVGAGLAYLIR

Row | Structure (SMILES) | GI50 at 72 h [2] [µM] | GI50 [3] [µM] | Ki [4] [µM] | Ki [5] [µM] | Papp [6] [×10⁻⁶ cm/s] | further results
1 | Cc1cc(OCCCc2c(C(=O)NCCC(=O)O)[nH]c3ccccc23)cc(C)c1Cl | – | – | – | – | – | Ki [1]: 0.57 µM
2 | Cc1cc(OCCCc2c3n(c4c(-c5c(C)nn(C)c5C)c(Cl)ccc24)CCCN(c2cn(C)c4c(C(=O)O)cccc24)C3=O)cc(C)c1Cl | > 9.2 | 1 | 21 | 0.31 | – | –
3 | Cc1cc(OCCCc2c3n(c4c(-c5c(C)nn(C)c5C)cc(Cl)cc24)CCCN(c2cc(C(=O)O)cc4c2ccn4C)C3=O)cc(C)c1Cl | 10 | 10 | – | – | – | Ki [1]: 0.13 µM; GI50 [7]: 8.9 µM; GI50 [8]: 9.1 µM; GI50 [9]: 7.7 µM; GI50 [10]: 12 µM
4 | Cc1cc(OCCCc2c3n(c4c(-c5c(C)nn(C)c5C)c(Cl)ccc24)CCCN(c2ccc(C(=O)O)c4cccnc24)C3=O)cc(C)c1Cl | 6.2 | 3.3 | > 36 | 0.49 | 122 | –
5 | Cc1cc(OCCCc2c3n(c4c(-c5c(C)nn(C)c5C)c(Cl)ccc24)CCCN(c2cccc4c(C(=O)O)cccc24)C3=O)cc(C)c1Cl | 5.7 | 1 | 11 | 0.25 | 4.4 | –
6 | Cc1cc(OCCCc2c3n(c4c(-c5c(C)nn(C)c5C)c(Cl)ccc24)CCCN(c2cn(C)c4cc(C(=O)O)ccc24)C3=O)cc(C)c1Cl | 5.8 | 0.33 | > 36 | 0.53 | – | –
7 | Cc1cc(OCCCc2c3n(c4c(-c5c(C)nn(C)c5C)c(Cl)ccc24)CCCN(c2ccc(C(=O)O)c4ccn(C)c24)C3=O)cc(C)c1Cl | > 12.5 | 5.7 | > 36 | 0.44 | 4.8 | –
8 | Cc1cc(OCCCc2c3n(c4c(-c5c(C)nn(C)c5C)c(Cl)ccc24)CCCN(c2cn(C)c4ccc(C(=O)O)cc24)C3=O)cc(C)c1Cl | > 12.5 | 0.3 | 26 | 0.56 | – | GI50 [11]: 0.28 µM and 0.33 µM
9 | Cc1cc(OCCCc2c3n(c4c(-c5c(C)nn(C)c5C)c(Cl)ccc24)CCCN(c2cc(C(=O)O)cc4ccn(C)c24)C3=O)cc(C)c1Cl | > 12.5 | 6.1 | > 36 | 0.52 | – | –
10 | Cc1cc(OCCCc2c3n(c4c(-c5c(C)nn(C)c5C)cc(Cl)cc24)CCCN(c2cc(C(=O)O)c4ccn(C)c4c2)C3=O)cc(C)c1Cl | 7.7 | 6 | – | – | – | Ki [1]: 0.094 µM; GI50 [7]: 5.7 µM; GI50 [8]: 6.2 µM; GI50 [9]: 6.6 µM; GI50 [10]: 9.9 µM
11 | Cc1cc(OCCCc2c3n(c4c(-c5c(C)nn(C)c5C)c(Cl)ccc24)CCCN(c2cc(C(=O)O)c4ccn(C)c4c2)C3=O)cc(C)c1Cl | 11 to 11.5 | 1.4 to 1.6 | 19 | 0.58 | 21 | GI50 [7]: 1.4 µM; GI50 [8]: 0.77 µM; GI50 [9]: 1.5 µM; GI50 [10]: 3.2 µM
12 | Cc1cc(OCCCc2c(C(=O)NCC(=O)O)[nH]c3ccccc23)cc(C)c1Cl | – | – | – | – | – | Ki [1]: 0.62 µM
13 | Cc1cc(OCCCc2c(C(=O)NCc3ccc(C(=O)O)o3)[nH]c3ccccc23)cc(C)c1Cl | – | – | – | – | – | Ki [1]: 0.069 µM
14 | COC(=O)CNC(=O)c1[nH]c2ccccc2c1CCCOc1cc(C)c(Cl)c(C)c1 | – | – | – | – | – | Ki [1]: 3.2 µM
15 | Cc1cc(OCCCc2c3n(c4c(-c5c(C)nn(C)c5C)c(Cl)ccc24)CCCN(c2cc(C(=O)O)cc4c2OCO4)C3=O)cc(C)c1Cl | > 12.5 | 2.3 | > 36 | 0.55 | 63 | –

The next lines start with results.

Row | GI50 at 72 h [2] [µM] | GI50 [3] [µM] | Ki [4] [µM] | Ki [5] [µM] | Papp [6] [×10⁻⁶ cm/s] | Structure (SMILES) | further results
16 | – | – | – | – | 1.2 | Cc1cc(OCCCc2c(C(=O)Nc3ccc(C(=O)O)cc3)[nH]c3c(-c4c(C)nn(C)c4C)c(Cl)ccc23)cc(C)c1Cl | –
17 | – | – | – | – | 2.3 | Cc1cc(OCCCc2c(C(=O)Nc3ccc(C(=O)O)o3)[nH]c3c(-c4c(C)nn(C)c4C)c(Cl)ccc23)cc(C)c1Cl | –
18 | – | – | – | – | 307 | Cc1cc(OCCCc2c3n(c4c(-c5c(C)nn(C)c5C)c(Cl)ccc24)CCCN(c2cccc(C(=O)O)c2)C3=O)cc(C)c1Cl | –
19 | – | – | – | – | < 1 | Cc1cc(OCCCc2c(C(=O)Nc3cncc(C(=O)O)c3)[nH]c3c(-c4c(C)nn(C)c4C)c(Cl)ccc23)cc(C)c1Cl | –
20 | – | – | – | – | < 3.3 | Cc1cc(OCCCc2c(C(=O)Nc3cc(C(=O)O)ccn3)[nH]c3c(-c4c(C)nn(C)c4C)c(Cl)ccc23)cc(C)c1Cl | –
21 | – | – | – | – | < 2.3 | Cc1cc(OCCCc2c(C(=O)Nc3ccc(C(=O)O)cn3)[nH]c3c(-c4c(C)nn(C)c4C)c(Cl)ccc23)cc(C)c1Cl | –
22 | – | – | – | – | 143 | Cc1cc(OCCCc2c3n(c4c(-c5c(C)nn(C)c5C)c(Cl)ccc24)CCCN(Cc2cccc(C(=O)O)c2)C3=O)cc(C)c1Cl | –
23 | – | – | – | – | < 7.6 | Cc1cc(OCCCc2c(C(=O)NCc3cccc(C(=O)O)c3)[nH]c3c(-c4c(C)nn(C)c4C)c(Cl)ccc23)cc(C)c1Cl | –
24 | – | – | – | – | < 1.2 | Cc1cc(OCCCc2c(C(=O)NCc3cc(C(=O)O)ccn3)[nH]c3c(-c4c(C)nn(C)c4C)cccc23)cc(C)c1Cl | –
25 | – | – | – | – | < 1.6 | Cc1cc(OCCCc2c(C(=O)Nc3cccc(C(=O)O)n3)[nH]c3c(-c4c(C)nn(C)c4C)c(Cl)ccc23)cc(C)c1Cl | –
